This is an account of results in patent publication US20100069319A1, “Mercaptopurine derivatives and uses thereof” (priority 2007, published 2010).

For series [1], the system named is N87 cells. The experiment in a line: XTT cell proliferation assay. The format is cell-based, human. The note with it: 16 h. As to the method:
(§1) Cell proliferation was determined by the XTT viability assay in 96-well plates, based on the reduction of tetrazolium salt to soluble formazan compounds by living cells. Cells (10,000-15,000 cells/well) were seeded in a 96-well plate. After 16 h incubation with various concentrations of 6-MP, 6-MPR and their S-allylthio-derivatives, 50 μl of XTT/PMS mixture (50 μM PMS, 0.1% XTT in medium) was added onto the cells. After an incubation period of 3-4 h at 37° C. the absorbance of the samples was measured in an ELISA Reader at 450 nm. SDS (1%, 10 μl/well) was added to reference wells before adding the XTT/PMS solution.
(§2) The inhibitory effects of the various prodrugs on Daudi leukemia cell and on monolayer N87 cells were compared. […] XTT was added to the wells for 3 h at 37° C. Cell viability was monitored using an ELISA reader at 450 nm, as described in Materials and Methods.
(Tetrazolium dyes change colour on reduction, which living cells bring about.)

The nature of series [2]: Nonactive 6-MP dimers in the medium of treated cell lines. From the text: The fact that only a fraction of the thiopurine molecules occurs in its active form explains the need for a high prodrug concentration. The allylthio moiety of the new derivative protects the free SH from such oxidation. Only later, upon entry to the cellular reducing environment is the mixed disulfide SA-6MP cleaved, which renders higher efficiency at lower concentrations. The proposed mechanism for the reaction of SA-6MP with free thiols in the cell is depicted in Scheme 2 hereinafter.

The next series has as its system Daudi cells. The experiment in a line: XTT cell proliferation assay. The note with it: 16 h. Format: cell-based. As to the method: as §1, §2
Another series deals with MDR HT-29 cells. The experiment in a line: Cell death assessment by PI staining, phase-contrast and fluorescence microscopy. Format: cell-based, human. The note with it: MDR HT-29, 150 μM, 16 h. As to the method:
Cell death was monitored by trypan blue dye exclusion test or propidium iodide (PI) incorporation. Treated cells were incubated with PI (2 μg/ml) for 20 min at 37° C., washed with HBS and examined by fluorescence microscopy or analyzed by flow cytometry using fluorescence-activated cell sorting (Becton Dickinson FACScan Instrument using CellQuest software (BD Bioscience, San Jose, Calif.). Monolayer cells were trypsinized and washed with HBS before FACS analysis.
In order to determine the toxic effect of 6-MP and SA-6MP on multidrug resistant cell lines, MDR HT-29 cells were treated for 16 h with 150 μM of either 6-MP or SA-6MP for 16 h, and were then stained with PI.

In a further series the test system is N87. Briefly: Anti-proliferative concentration IC50 (Table 2). The format is cell-based, human. The note with it: Homo sapiens; N87, 16 h, tested at 0-200 μM; read-out: Anti-proferative concentration - IC50 (mean ± SE). On the procedure:
as §1
(§3) The results of viability and proliferation were expressed as mean values±SD (n=3-6). For each cell line, the results were analyzed using two-way analysis of variance (ANOVA) followed by Bonferroni's posttest for the factors of the drugs used and their various concentrations, considering p<0.05 as significant. IC50 values (mean±SEM) were obtained from the linear range of the viability curve versus drug concentration (XTT assay).
(§4) In particular, cell in suspension, namely, Daudi, HL-60, U937, Molt-4, Jurkat and B-CLL, were tested at prodrug concentration of 0-100 μM, and monolayer cells, namely, Hela HtTA-1, MDR HT-29 and N87, were tested at prodrug concentration of 0-200 μM. in both cases, cell viability was determined by trypan blue dye exclusion assay. Data are presented in Table 2 hereinbelow for 6MP derivatives-treated for 16 h.

The next series deals with HL-60. Briefly: Anti-proliferative concentration IC50 (Table 2). Format: cell-based, human. The note with it: Homo sapiens; HL-60, 16 h, tested at 0-100 μM; read-out: Anti-proferative concentration - IC50 (mean ± SE). As to the method:
as §1, §3, §4

For another series, the system named is Hela cells. The experiment in a line: [3H] thymidine incorporation into DNA (cell proliferation). Format: cell-based, human. The note with it: 16 h. On the procedure:
(§5) The effects of 6-MP derivatives on DNA synthesis were assessed by [Methyl-^3H] thymidine incorporation into DNA. All the experiments performed with cells were carried out at least in triplicates. Adhesive cells (N87, Hela HtTA-1 and MDR HT-29) were seeded at 10,000 cells/well (96-well plate) or 60,000 cells/well (24-well plate). Cells in suspension (B-CLL, Daudi, HL-60, Jurkat, MOLT4 and U937cells) were seeded at 15,000 cells/well (96-wells plate) or 100,000 cells/well (24-wells plate). Adhesive cells were grown at 37° C. for 6 h after seeding, before treatment. For the assessment of [Methyl-^3H] thymidine incorporation, cells were treated with various concentrations of 6-MP derivatives at 37° C. for 16 h in the presence of [Methyl-^3H] thymidine (0.8-1.0 μCi/well). Then, plates were frozen (−20° C., 1 h). Adhesive cells were trypsinized before harvesting. Cells in suspension were directly harvested after thawing out the frozen cells.
(§6) The antiproliferative effect of 6-MP and SA-6MP on various cell lines was assessed by determining [^3H] thymidine incorporation into the DNA. 6-MP and SA-6MP at 0-200 μM were applied to Daudi, Hela and N87 cells cultured in 96-well plates in the presence of [^3H] thymidine, as described in Materials and Methods. […] As further shown, the sensitivity to the prodrug is cell type dependent.

Series [3] concerns N87 cells. The description is as above. The format is cell-based, human. The note with it: 16 h. As to the method:
as §5, §6

The next series has as its system Daudi. Briefly: Anti-proliferative concentration IC50 (Table 2). Format: cell-based. The note with it: Homo sapiens, 16 h, tested at 0-100 μM, read-out: Anti-proferative concentration - IC50 (mean ± SE). As to the method: as §1, §3, §4
The next series deals with B-CLL. Briefly: Anti-proliferative concentration IC50 (Table 2). The format is cell-based. The note with it: Homo sapiens, 16 h, tested at 0-100 μM, read-out: Anti-proferative concentration - IC50 (mean ± SE). On the procedure:
as §1, §3, §4

The next series concerns Molt-4. The experiment in a line: Anti-proliferative concentration IC50 (Table 2). The format is cell-based. The note with it: Homo sapiens; Molt-4, 16 h, tested at 0-100 μM; read-out: Anti-proferative concentration - IC50 (mean ± SE). As to the method: as §1, §3, §4
In series [4] the test system is human peripheral blood mononuclear cells (PBMCs). The note with it: after 4 days of treatment, read-out: IC50, T-cell mitogen-induced blastogenesis; cited from earlier work.
Where [5] appears, read: Homo sapiens, [3H] thymidine incorporation, read-out: concentration at which 50% inhibition was observed.
Where [6] appears, read: at the same concentrations (0-200 μM).

In the case of `C=CCSSc1ncnc2nc[nH]c12` [SA-6MP, S-allylthio-6-mercaptopurine], the viability at 50 µM in the series with N87 cells [1] (Homo sapiens, N87, 50 μM, read-out: residual proliferation / viability) fell in the range of 50 to 60%. Further, the “nonactive 6-MP dimers (purine-S-S-purine) in the medium” value in series [2] is given as “not in the medium”. The residual proliferation in the series on Daudi cells (50 μM) is reported as 15-30%. The “epithelial-like growth / cell death” value in the series on MDR HT-29 cells is recorded as “epithelial-like growth was inhibited”. Further, the IC50 in the series with N87 was found to be 70.5 ± 8.5 µM; in the series on HL-60, 42 ± 3.8 µM; in the series on Hela cells (setting [5]), 110 µM; with N87 cells [3] (setting [5]), 100 µM; with Daudi, 38.3 ± 3.9 µM; in the series with B-CLL it was 129 ± 14.2 µM. Besides, the IC50 with Molt-4 is 8.9 ± 1.2 µM.
Regarding `Sc1ncnc2nc[nH]c12` [6-MP, 6-Mercaptopurine, reference compound], the “cell proliferation” value in the series on N87 cells [1] (N87, 0-100 μM) was “no significant loss of cell proliferation”; in the series on Daudi cells (0-100 μM), “no significant loss of cell proliferation”. The “proliferation (residual)” value in the series with N87 cells [1] (N87, 150 μM) was ~80%. Moreover, the IC50 was 0.149 ± 0.125 µM in series [4], > 200 µM with Daudi, > 900 µM in the series on B-CLL and 50.5 ± 6.1 µM in the series with Molt-4. In series [2], the “nonactive 6-MP dimers (purine-S-S-purine) in the medium” value is “dimers were indeed found in the medium”. The “epithelial-like growth / cell death” value in the series on MDR HT-29 cells is reported as “no inhibition was observed”. The “inhibition of proliferation” value in the series with Hela cells (setting [6]) and in the series with N87 cells [3] (setting [6]) was “no inhibition of proliferation” in each case.
